Assay results published in patent US9770026B2, “Substituted pyrimidine compound and uses thereof” (Shenyang Sinochem Agrochemicals R&D Co., Ltd., priority 2012, dated 2017).

Columns and labels:
[1] = system: Diamond back moth; assay: insecticidal activity against diamond back moth, airbrush spray; type: in vivo; settings: for pest or weed control at 600 µg/mL: 72 h
Protocol: (§1) Compounds were dissolved in mixed solvent (acetone:methanol=1:1), and diluted to required concentration with water containing 0.1% of tween 80.
(§2) Diamond back moth, armyworm, peach aphid and carmine spider mite were used as targets and the method of spraying by airbrush was used for determination of insecticidal biassays.
(§3) The method of spraying by airbrush: The cabbage leaves were made into plates of 2 cm diameter by use of punch. A test solution (0.5 ml) was sprayed by airbrush at the pressure of 0.7 kg/cm^2 to both sides of every plate. 10 Second instar larvae were put into the petri-dishes after the leaf disc air-dried and 3 replicates were set for each treatment. Then the insects were maintained in observation room (25° C., 60˜70% R.H.). Scores were conducted and mortalities were calculated after 72 hrs.

[2] = system: armyworm; assay: bioactivity test against armyworm, airbrush spray; type: in vivo; settings: 600 mg/L; for pest or weed control at 600 µg/mL: 72 h, read-out: Insecticidal activity against armyworm (%)
Protocol: as §1, §2
as §3, with “corn” for “cabbage”, “(25 °C,” for “(25° C.,”, “h.” for “hrs.”

[3] = system: Green peach aphids (Myzus Persicae Sulzer); assay: bioactivity test against green peach aphid, airbrush foliar spray; type: in vivo; settings: contrastive test
Procedure, shortened: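 Death rate was scored at 48 hrs, held at 25±1 C and 60±5% RH, following airbrush foliar spray (0.5 mL, 10 psi) onto cabbage leaf discs bearing about 15-30 aphids. Test solutions: compound dissolved in 1:1 acetone:methanol, brought to concentration with 0.1% tween 80 water.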

[4] = system: corn rust; assay: protectant activity in vivo against corn rust; settings: protectant activity; for pest or weed control at 6.25 µg/mL: read-out: control effect against corn rust (%), 6.25 mg/L; for pest or weed control at 25 µg/mL: read-out: control effect against corn rust (%), 25 mg/L; for pest or weed control at 100 µg/mL: read-out: control effect against corn rust (%), 100 mg/L; for pest or weed control at 400 µg/mL: read-out: control effect against corn rust (%), 400 mg/L
[5] = system: wheat powdery mildew; assay: protectant activity in vivo against wheat powdery mildew; settings: protectant activity; for pest or weed control at 6.25 µg/mL / pest or weed control at 25 µg/mL / pest or weed control at 100 µg/mL / pest or weed control at 400 µg/mL: Triticum aestivum, 168 h; for pest or weed control at 6.25 µg/mL: read-out: control effect against wheat powdery mildew (%), 6.25 mg/L; for pest or weed control at 25 µg/mL: read-out: control effect against wheat powdery mildew (%), 25 mg/L; for pest or weed control at 100 µg/mL: read-out: control effect against wheat powdery mildew (%), 100 mg/L; for pest or weed control at 400 µg/mL: read-out: control effect against wheat powdery mildew (%), 400 mg/L
[6] = system: cucumber downy mildew; assay: protectant activity in vivo against cucumber downy mildew; settings: protectant activity; for pest or weed control at 25 µg/mL: read-out: control effect against cucumber downy mildew (%), 25 mg/L; for pest or weed control at 50 µg/mL: read-out: control effect against cucumber downy mildew (%), 50 mg/L; for pest or weed control at 100 µg/mL: read-out: control effect against cucumber downy mildew (%), 100 mg/L; for pest or weed control at 400 µg/mL: read-out: control effect against cucumber downy mildew (%), 400 mg/L
[7] = system: carmine spider mite; assay: bioactivity test against carmine spider mite, airbrush spray; type: in vivo; settings: Tetranychus cinnabarinus, 72 h, contrastive test, read-out: Insecticidal activity against carmine spider mite (% )
Procedure, shortened: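 Broadbean seedlings infested with adult mites were sprayed with compound (acetone/methanol stock diluted in 0.1% Tween 80 water) by airbrush at 0.7 kg/cm^2, 0.5 ml. Three replicates were run. Mortality was scored after 72 hrs.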

[8] = Myzus persicae, foliar, 48 h, 10 mg/L, read-out: Insecticidal activity against peach aphid (%)
[9] = Myzus persicae, foliar, 48 h, 100 mg/L, read-out: Insecticidal activity against peach aphid (%)
[10] = Myzus persicae, foliar, 48 h, 600 mg/L, read-out: Insecticidal activity against peach aphid (%)

SMILES	Insecticidal activity against diamond back moth (%) ([1]; 600 mg/L)	Insecticidal activity against armyworm (%) [2] [%]	Insecticidal activity against peach aphid (%) ([3]; 10 mg/L)	Insecticidal activity against peach aphid (%) ([3]; 100 mg/L)	Insecticidal activity against peach aphid (%) ([3]; 600 mg/L)	control effect against corn rust (%) ([4]; 400 mg/L)	control effect against wheat powdery mildew (%) ([5]; 400 mg/L)	control effect against cucumber downy mildew (%) ([6]; 25 mg/L)	control effect against cucumber downy mildew (%) ([6]; 50 mg/L)	control effect against cucumber downy mildew (%) ([6]; 100 mg/L)	control effect against cucumber downy mildew (%) ([6]; 400 mg/L)	pest or weed control at 600 µg/mL ([1]; 600 mg/L) [%]	pest or weed control at 600 µg/mL [2] [%]	pest or weed control at 600 µg/mL [3, 10] [%]	pest or weed control at 400 µg/mL ([4]; Zea mays, 168 h) [%]	pest or weed control at 25 µg/mL ([6]; Cucumis sativus, 168 h) [%]	pest or weed control at 50 µg/mL ([6]; Cucumis sativus, 168 h) [%]	pest or weed control at 100 µg/mL ([6]; Cucumis sativus, 168 h) [%]	pest or weed control at 400 µg/mL ([6]; Cucumis sativus, 168 h) [%]	pest or weed control at 400 µg/mL [5] [%]	also measured
CCc1ncnc(NC(C)c2ccc(Oc3ccc(F)cc3)nc2)c1Cl (stereo not drawn) [CK9, reference compound]	100	40	23	79	100	100	100	70	90	98	100										Insecticidal activity against diamond back moth (%) ([1]; 10 mg/L): 25%; Insecticidal activity against diamond back moth (%) ([1]; 100 mg/L): 45%; control effect against corn rust (%) ([4]; 6.25 mg/L): 0%; control effect against corn rust (%) ([4]; 25 mg/L): 20%; control effect against corn rust (%) ([4]; 100 mg/L): 100%; control effect against wheat powdery mildew (%) ([5]; 6.25 mg/L): 0%; control effect against wheat powdery mildew (%) ([5]; 25 mg/L): 0%; control effect against wheat powdery mildew (%) ([5]; 100 mg/L): 0%
CCc1ncnc(NC(C)c2ccc(Oc3ccc(C(C)(C)C)cc3)nc2)c1Cl (stereo not drawn) [CK10, reference compound]	33	0	23	91	100	50	50	20	40	82	100										
Cc1ncnc(NC(C)c2ccc(Oc3ccc(C(F)(F)F)cn3)cc2)c1Cl (stereo not drawn) [CK28, reference compound]												0	29	100	100	0	20	40	100		pest or weed control at 10 µg/mL [3, 8]: 43%; pest or weed control at 100 µg/mL [3, 9]: 100%; pest or weed control at 10 µg/mL ([7]; 10 mg/L): 22%; pest or weed control at 100 µg/mL ([7]; 100 mg/L): 100%; pest or weed control at 600 µg/mL ([7]; 600 mg/L): 100%; pest or weed control at 0.4 µg/mL ([4]; Zea mays, 168 h, read-out: control effect against corn rust (%), 0.4 mg/L): 0%; pest or weed control at 1.6 µg/mL ([4]; Zea mays, 168 h, read-out: control effect against corn rust (%), 1.6 mg/L): 0%; pest or weed control at 6.25 µg/mL ([4]; Zea mays, 168 h): 95%; pest or weed control at 25 µg/mL ([4]; Zea mays, 168 h): 100%; pest or weed control at 100 µg/mL ([4]; Zea mays, 168 h): 100%
Cc1ncnc(NC(C)c2ccc(Oc3nc(Cl)c(Cl)cc3Cl)cc2)c1Cl (stereo not drawn) [CK29, reference compound]												0	14	0	100	25	90	98	98	100	pest or weed control at 6.25 µg/mL ([4]; Zea mays, 168 h): 30%; pest or weed control at 25 µg/mL ([4]; Zea mays, 168 h): 85%; pest or weed control at 100 µg/mL ([4]; Zea mays, 168 h): 95%; pest or weed control at 6.25 µg/mL [5]: 40%; pest or weed control at 25 µg/mL [5]: 50%; pest or weed control at 100 µg/mL [5]: 80%
CCc1ncnc(NCc2ccc(Oc3ccc(C(F)(F)F)cn3)cc2)c1Cl [CK42, reference compound]												0	0	100	70	20	100	100	100	100	pest or weed control at 2.5 µg/mL ([3]; Myzus persicae, foliar, 48 h, 2.5 mg/L, read-out: Insecticidal activity against peach aphid (%)): 0%; pest or weed control at 5 µg/mL ([3]; Myzus persicae, foliar, 48 h, 5 mg/L, read-out: Insecticidal activity against peach aphid (%)): 17%; pest or weed control at 10 µg/mL [3, 8]: 20%; pest or weed control at 100 µg/mL [3, 9]: 67%; pest or weed control at 6.25 µg/mL [5]: 50%; pest or weed control at 25 µg/mL [5]: 60%; pest or weed control at 100 µg/mL [5]: 70%; pest or weed control at 3.125 µg/mL ([6]; Cucumis sativus, 168 h, read-out: control effect against cucumber downy mildew (%), 3.125 mg/L): 0%; pest or weed control at 6.25 µg/mL ([6]; Cucumis sativus, 168 h, read-out: control effect against cucumber downy mildew (%), 6.25 mg/L): 0%; pest or weed control at 12.5 µg/mL ([6]; Cucumis sativus, 168 h, read-out: control effect against cucumber downy mildew (%), 12.5 mg/L): 0%
COc1cc(NCCc2ccc(Oc3ncc(C(F)(F)F)cc3Cl)cc2)ncn1 [CK71, reference compound]												0	86		0				80	100	
